Reference: ChEMBL document CHEMBL4732135, “Structural and mechanistic insights into the inhibition of amyloid-β aggregation by Aβ fragment derived synthetic peptides” (Eur J Med Chem, 2021)
Calls of active or inactive are those of the source. No cut-off for these calls is given here. Square brackets hold non-standard residues; d marks the D form. Peptide text beside a SMILES is read from it. ξ: configuration not given here. Phe(4-NO2) = N[C@@H](Cc1ccc([N+](=O)[O-])cc1)C(=O)O; Phe(4-CF3) = N[C@@H](Cc1ccc(C(F)(F)F)cc1)C(=O)O; Phe(4-tBu) = CC(C)(C)c1ccc(C[C@H](N)C(=O)O)cc1; Bip = N[C@@H](Cc1ccc(-c2ccccc2)cc1)C(=O)O; Phe(4-Cl) = N[C@@H](Cc1ccc(Cl)cc1)C(=O)O; Oic(3aξ,7aξ) = O=C(O)[C@@H]1CC2CCCCC2N1; Phe(4-NH2) = Nc1ccc(C[C@H](N)C(=O)O)cc1; Phe(4-Me) = Cc1ccc(C[C@H](N)C(=O)O)cc1; NMeF = CN[C@@H](Cc1ccccc1)C(=O)O; NMeI = CC[C@H](C)[C@H](NC)C(=O)O; 4Pal = N[C@@H](Cc1ccncc1)C(=O)O; Tle = CC(C)(C)[C@H](N)C(=O)O; β3hP = O=C(O)C[C@@H]1CCCN1; Ac5c = NC1(C(=O)O)CCCC1; Abu = CC[C@H](N)C(=O)O

What was measured:
[1] = system: Cortical neurone; test: Neuroprotective activity against amyloid beta 42-induced toxicity in rat primary cortical neurons at 10 uM; format: functional, cell-based
[2] = system: PC-12; test: Neuroprotective activity against amyloid beta 42-induced toxicity in rat PC-12 cells assessed as cell viability at 10 uM measured after 6 hrs by MTT assay (reference value: 74.05%); format: functional; conditions: read-out: Activity
[3] = system: PC-12; test: Neuroprotective activity against amyloid beta 42-induced toxicity in rat PC-12 cells assessed as cell viability at 4 uM measured after 6 hrs by MTT assay (reference value: 74.05%); format: functional; conditions: read-out: Activity
[4] = system: PC-12; test: Neuroprotective activity against amyloid beta 42-induced toxicity in rat PC-12 cells assessed as cell viability at 2 uM measured after 6 hrs by MTT assay (reference value: 74.05%); format: functional; conditions: read-out: Activity
[5] = biological target: Amyloid-beta precursor protein (Homo sapiens) (UniProt P05067); test: Inhibition of amyloid beta (1 to 42) (unknown origin) assessed as reduction in peptide aggregation at 10 uM measured after 24 hrs by thioflavin-T fluorescence assay relative to control
[6] = biological target: Amyloid-beta precursor protein (Homo sapiens) (UniProt P05067); test: Inhibition of amyloid beta (1 to 42) (unknown origin) assessed as reduction in peptide aggregation at 4 uM measured after 24 hrs by thioflavin-T fluorescence assay relative to control
[7] = biological target: Amyloid-beta precursor protein (Homo sapiens) (UniProt P05067); test: Inhibition of amyloid beta (1 to 42) (unknown origin) assessed as reduction in peptide aggregation at 2 uM measured after 24 hrs by thioflavin-T fluorescence assay relative to control
[8] = system: PC-12; test: Cytotoxicity against rat PC-12 cells assessed as reduction in cell viability at 20 uM measured after 6 hrs by MTT assay; format: cell-based; conditions: pc-12, 6 h
[9] = system: Cortical neurone; test: Cytotoxicity against rat primary cortical neuron assessed as reduction in cell viability at 20 uM measured after 6 hrs by MTT assay; format: cell-based
[10] = Effective permeability of compound in pH 8 PBS buffer by PAMPA-BBB assay; format: ADME
[11] = biological target: Amyloid-beta precursor protein (Homo sapiens) (UniProt P05067); test: Inhibition of amyloid beta (1 to 42) (unknown origin) aggregation assessed as relative fluorescence unit at 10 uM measured after 24 hrs by thioflavin-T fluorescence assay (reference value: 100%)
[12] = biological target: Amyloid-beta precursor protein (Homo sapiens) (UniProt P05067); test: Inhibition of amyloid beta (1 to 42) (unknown origin) aggregation assessed as relative fluorescence unit at 4 uM measured after 24 hrs by thioflavin-T fluorescence assay (reference value: 100%)
[13] = biological target: Amyloid-beta precursor protein (Homo sapiens) (UniProt P05067); test: Inhibition of amyloid beta (1 to 42) (unknown origin) aggregation assessed as relative fluorescence unit at 2 uM measured after 24 hrs by thioflavin-T fluorescence assay (reference value: 100%)
[14] = system: PC-12; test: Neuroprotective activity against amyloid beta 42-induced toxicity in rat PC-12 cells assessed as cell viability at 1 uM measured after 6 hrs by MTT assay (reference value: 73.8%); format: functional; conditions: read-out: Activity
[15] = system: PC-12; test: Neuroprotective activity against amyloid beta 42-induced toxicity in rat PC-12 cells assessed as cell viability at 0.5 uM measured after 6 hrs by MTT assay (reference value: 73.8%); format: functional; conditions: read-out: Activity
[16] = system: PC-12; test: Neuroprotective activity against amyloid beta 42-induced toxicity in rat PC-12 cells assessed as cell viability at 0.1 uM measured after 6 hrs by MTT assay (reference value: 73.8%); format: functional; conditions: read-out: Activity
[17] = biological target: Amyloid-beta precursor protein (Homo sapiens) (UniProt P05067); test: Inhibition of amyloid beta (1 to 42) (unknown origin) assessed as reduction in peptide aggregation at 1 uM measured after 24 hrs by thioflavin-T fluorescence assay relative to control
[18] = biological target: Amyloid-beta precursor protein (Homo sapiens) (UniProt P05067); test: Inhibition of amyloid beta (1 to 42) (unknown origin) assessed as reduction in peptide aggregation at 0.5 uM measured after 24 hrs by thioflavin-T fluorescence assay relative to control
[19] = biological target: Amyloid-beta precursor protein (Homo sapiens) (UniProt P05067); test: Inhibition of amyloid beta (1 to 42) (unknown origin) assessed as reduction in peptide aggregation at 0.1 uM measured after 24 hrs by thioflavin-T fluorescence assay relative to control

Amyloid-beta precursor protein (Homo sapiens), sequence (P05067 whole entry): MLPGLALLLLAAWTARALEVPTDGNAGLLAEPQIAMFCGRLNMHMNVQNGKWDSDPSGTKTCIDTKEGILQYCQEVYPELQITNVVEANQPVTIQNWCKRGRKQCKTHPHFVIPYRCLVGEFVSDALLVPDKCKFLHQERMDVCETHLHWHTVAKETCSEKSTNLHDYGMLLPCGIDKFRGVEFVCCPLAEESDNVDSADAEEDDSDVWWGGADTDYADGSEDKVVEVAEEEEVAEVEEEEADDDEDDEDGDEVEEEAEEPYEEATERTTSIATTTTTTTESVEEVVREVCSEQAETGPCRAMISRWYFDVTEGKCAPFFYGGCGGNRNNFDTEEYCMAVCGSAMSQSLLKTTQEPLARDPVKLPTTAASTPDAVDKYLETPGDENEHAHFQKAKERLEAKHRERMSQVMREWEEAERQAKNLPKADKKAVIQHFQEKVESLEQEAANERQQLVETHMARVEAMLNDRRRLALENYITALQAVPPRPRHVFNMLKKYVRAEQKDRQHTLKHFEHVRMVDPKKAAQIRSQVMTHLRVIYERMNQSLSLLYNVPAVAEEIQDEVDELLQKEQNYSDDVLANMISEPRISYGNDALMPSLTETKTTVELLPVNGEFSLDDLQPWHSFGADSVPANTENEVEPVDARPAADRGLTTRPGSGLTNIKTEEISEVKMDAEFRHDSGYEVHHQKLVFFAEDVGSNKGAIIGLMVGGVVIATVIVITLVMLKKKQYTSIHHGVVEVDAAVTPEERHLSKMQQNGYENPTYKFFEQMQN

Compound | inhibition [5] | inhibition [6] | inhibition [7] | viability at 10 µM [2] | viability at 4 µM [3] | viability at 2 µM [4] | other results
COc1cc(/C=C/C(=O)CC(=O)/C=C/c2ccc(O)c(OC)c2)ccc1O | – | – | – | – | – | – | Activity [1]: Active
Oc1ccc(/C=C/c2cc(O)cc(O)c2)cc1 | – | – | – | – | – | – | Activity [1]: Active
CC[C@H](C)[C@H](NC(=O)[C@H](Cc1ccccc1)NC(=O)[C@@H](N)Cc1ccccc1)C(=O)N[C@@H](C)C(=O)O (H-FFIA-OH) | 100% | 97.2% | 92.2% | 83.8% | 100% | 98% | Activity [8]: Non-Toxic; Activity [9]: Non-Toxic; Peff [10]: Permeable
CC(C)[C@H](N)C(=O)N[C@H](C(=O)N1C2CCCCC2C[C@H]1C(=O)N[C@@H](C)C(=O)O)C(C)C (stereo partly specified) (H-VV[Oic(3aξ,7aξ)]A-OH) | 46.4% | 19.3% | 37.2% | 86.1% | 78.4% | 60% | –
CC[C@H](C)[C@H](NC(=O)C1(NC(=O)[C@@H](N)C(C)C)CCCC1)C(=O)N[C@@H](C)C(=O)O (H-V[Ac5c]IA-OH) | 100% | 100% | 100% | 100% | 97.1% | 89% | –
CC[C@H](C)[C@H](NC(=O)C[C@@H]1CCCN1C(=O)[C@@H](N)C(C)C)C(=O)N[C@@H](C)C(=O)O (H-V[β3hP]IA-OH) | 100% | 99.2% | 96.1% | 66.4% | 80.4% | 91.1% | –
CC[C@H](NC(=O)[C@@H](N)CC)C(=O)N[C@H](C(=O)N[C@@H](C)C(=O)O)[C@@H](C)CC (H-[Abu][Abu]IA-OH) | 88.7% | 90.2% | 97.7% | 92.1% | 100% | 100% | Activity [8]: Non-Toxic; Activity [9]: Non-Toxic
CC[C@H](C)[C@H](NC(=O)[C@@H](NC(=O)[C@@H](N)Cc1ccc(-c2ccccc2)cc1)C(C)C)C(=O)N[C@@H](C)C(=O)O (H-[Bip]VIA-OH) | 12.9% | 34.7% | 26.4% | 83.2% | 80.6% | 86.5% | –
CC[C@H](C)[C@H](NC(=O)[C@@H](NC(=O)[C@H](Cc1ccccc1)NC)C(C)C)C(=O)N[C@@H](C)C(=O)O (H-[NMeF]VIA-OH) | 100% | 94.3% | 84.8% | 100% | 81% | 86.1% | Peff [10]: Permeable
CC[C@H](C)[C@H](NC(=O)[C@@H]1CC2CCCCC2N1C(=O)[C@@H]1CC2CCCCC2N1)C(=O)N[C@@H](C)C(=O)O (stereo partly specified) (H-[Oic(3aξ,7aξ)][Oic(3aξ,7aξ)]IA-OH) | 91.5% | 99.1% | 100% | 88.5% | 92.9% | 93.2% | –
CC[C@H](C)[C@H](NC(=O)[C@@H](NC(=O)[C@@H](N)Cc1ccc(C(F)(F)F)cc1)C(C)C)C(=O)N[C@@H](C)C(=O)O (H-[Phe(4-CF3)]VIA-OH) | 4.5% | 20.4% | 41.8% | 86.2% | 88.7% | 92.1% | –
CC[C@H](C)[C@H](NC(=O)[C@@H](NC(=O)[C@@H](N)Cc1ccc(Cl)cc1)C(C)C)C(=O)N[C@@H](C)C(=O)O (H-[Phe(4-Cl)]VIA-OH) | 75.8% | 57.4% | 46.4% | 72.3% | 73.9% | 80.1% | –
CC[C@H](C)[C@H](NC(=O)[C@@H](NC(=O)[C@@H](N)Cc1ccc(N)cc1)C(C)C)C(=O)N[C@@H](C)C(=O)O (H-[Phe(4-NH2)]VIA-OH) | 77.4% | 68.4% | 59.2% | 82.1% | 70.3% | 77.8% | –
CC[C@H](C)[C@H](NC(=O)[C@@H](NC(=O)[C@@H](N)Cc1ccc([N+](=O)[O-])cc1)C(C)C)C(=O)N[C@@H](C)C(=O)O (H-[Phe(4-NO2)]VIA-OH) | 50.4% | 78.4% | 94.8% | 73.7% | 100% | 94.1% | –
CC[C@H](C)[C@H](NC(=O)[C@@H](NC(=O)[C@@H](N)Cc1ccc(C(C)(C)C)cc1)C(C)C)C(=O)N[C@@H](C)C(=O)O (H-[Phe(4-tBu)]VIA-OH) | 42% | 57.4% | 78.6% | 80.2% | 87.3% | 93.6% | –
CC[C@H](C)[C@H](NC(=O)[C@@H](NC(=O)[C@@H](N)C(C)(C)C)C(C)(C)C)C(=O)N[C@@H](C)C(=O)O (H-[Tle][Tle]IA-OH) | 95.3% | 97.4% | 100% | 100% | 100% | 100% | RFU [11]: 55.5%; RFU [12]: 54.5%; RFU [13]: 51.2%; viability at 1 µM [14]: 97.6%; viability at 0.5 µM [15]: 94.5%; viability at 0.1 µM [16]: 91.2%; inhibition [17]: 51.8%; inhibition [18]: 41.3%; inhibition [19]: 34.4%; Activity [8]: Non-Toxic; Activity [9]: Non-Toxic
CC[C@H](C)[C@H](NC(=O)C[C@@H]1CCCN1C(=O)C[C@@H]1CCCN1)C(=O)N[C@@H](C)C(=O)O (H-[β3hP][β3hP]IA-OH) | 100% | 89.7% | 78.9% | 100% | 75.5% | 97.9% | –

Now from value to compound, other results behind:

inhibition [5] | inhibition [6] | inhibition [7] | Compound | viability at 10 µM [2] | viability at 4 µM [3] | viability at 2 µM [4] | other results
66.2% | 60.6% | 33.9% | CC[C@H](C)[C@H](NC(=O)[C@@H](NC(=O)[C@@H](N)C(C)C)C(C)C)C(=O)N[C@@H](C)C(=O)O (H-VVIA-OH) | 93.6% | 90.5% | 78.9% | Peff [10]: Permeable
100% | 100% | 82% | CC[C@H](C)[C@H](NC(=O)[C@@H](NC(=O)[C@@H](N)C(C)C)C(C)C)C(=O)N[C@@H](CC(=O)O)C(=O)O (H-VVID-OH) | 95.8% | 98.7% | 100% | Activity [8]: Non-Toxic; Activity [9]: Non-Toxic
100% | 83.4% | 80.6% | CC[C@H](C)[C@@H](C(=O)N[C@@H](C)C(=O)O)N(C)C(=O)[C@@H](NC(=O)[C@@H](N)C(C)C)C(C)C (H-VV[NMeI]A-OH) | 100% | 92.9% | 88.4% | Peff [10]: Permeable
0% | 0% | 0% | CC(C)[C@H](N)C(=O)N[C@H](C(=O)N[C@H](C(=O)N[C@@H](C)C(=O)O)C(C)(C)C)C(C)C (H-VV[Tle]A-OH) | 82.7% | 69.2% | 78.1% | –
24.1% | 5.3% | 0% | CC[C@H](NC(=O)[C@@H](N)C(C)C)C(=O)N[C@H](C(=O)N[C@@H](C)C(=O)O)[C@@H](C)CC (H-V[Abu]IA-OH) | 82.7% | 70.8% | 90.1% | –
100% | 100% | 100% | CC[C@H](C)[C@H](NC(=O)[C@@H](NC(=O)[C@@H](N)C(C)C)C(C)(C)C)C(=O)N[C@@H](C)C(=O)O (H-V[Tle]IA-OH) | 100% | 91.3% | 89.3% | –
46% | 44.2% | 42.7% | CC[C@H](C)[C@H](NC(=O)[C@@H](NC(=O)[C@@H](N)Cc1ccncc1)C(C)C)C(=O)N[C@@H](C)C(=O)O (H-[4Pal]VIA-OH) | 96.8% | 78.2% | 82% | –
26.8% | 3.2% | 0% | CC[C@H](C)[C@H](NC(=O)[C@@H](NC(=O)[C@@H](N)Cc1ccc(C)cc1)C(C)C)C(=O)N[C@@H](C)C(=O)O (H-[Phe(4-Me)]VIA-OH) | 72.6% | 68.4% | 71.7% | –
